Measurements as given in the kinase profiling compilation of Christmann-Franck et al. (2016).

Assays:
Assay in all cases: KINOMEscan competition binding
Conditions in all cases: compound 10.0 µM
PIP4K2B (human) = PIP4K2B (human) (UniProt P78356)
[1] = molecular target: JAK1 JH2 pseudokinase (human) (UniProt P23458)
MAP3K2 (human) = MAP3K2 (human) (UniProt Q9Y2U5)
MARK3 (human) = MARK3 (human) (UniProt P27448)
ULK1 (human) = ULK1 (human) (UniProt O75385)
CDC2L2 (human) = CDC2L2 (human) (UniProt Q9UQ88)
CDC2L2 (human), sequence (Q9UQ88 whole entry, looked up): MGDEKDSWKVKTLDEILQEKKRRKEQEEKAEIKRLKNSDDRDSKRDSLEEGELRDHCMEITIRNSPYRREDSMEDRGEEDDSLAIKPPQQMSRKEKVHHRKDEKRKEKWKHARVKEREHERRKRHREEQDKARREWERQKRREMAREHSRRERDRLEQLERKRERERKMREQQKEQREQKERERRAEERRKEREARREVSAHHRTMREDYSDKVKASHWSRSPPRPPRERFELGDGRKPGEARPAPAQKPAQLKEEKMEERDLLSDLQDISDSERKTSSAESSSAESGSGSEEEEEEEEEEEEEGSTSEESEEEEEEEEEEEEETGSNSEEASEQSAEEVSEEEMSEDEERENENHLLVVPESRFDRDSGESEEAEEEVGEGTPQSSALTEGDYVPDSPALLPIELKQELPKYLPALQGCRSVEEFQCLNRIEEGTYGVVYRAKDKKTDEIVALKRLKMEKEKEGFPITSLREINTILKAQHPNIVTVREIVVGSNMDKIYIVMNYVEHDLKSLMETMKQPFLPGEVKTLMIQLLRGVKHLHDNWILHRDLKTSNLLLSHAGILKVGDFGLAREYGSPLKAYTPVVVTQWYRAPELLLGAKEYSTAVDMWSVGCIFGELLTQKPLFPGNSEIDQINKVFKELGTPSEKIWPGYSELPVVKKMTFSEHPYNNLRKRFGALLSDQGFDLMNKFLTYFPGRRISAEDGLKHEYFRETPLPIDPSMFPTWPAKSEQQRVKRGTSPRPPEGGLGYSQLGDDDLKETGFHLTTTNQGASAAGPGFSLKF

RPS6KA2 KD1 (human) = RPS6KA2 KD1 (human) (UniProt Q15349)
FYN (human) = FYN (human) (UniProt P06241)
BTK (human) = BTK (human) (UniProt Q06187)
MAPK9 (human) = MAPK9 (human) (UniProt P45984)
LIMK1 (human) = LIMK1 (human) (UniProt P53667)
RPS6KA1 KD2 (human) = RPS6KA1 KD2 (human) (UniProt Q15418)
NIM1 (human) = NIM1 (human) (UniProt Q8IY84)
DYRK1A (human) = DYRK1A (human) (UniProt Q13627)
NEK1 (human) = NEK1 (human) (UniProt Q96PY6)
MLTK (human) = MLTK (human) (UniProt Q9NYL2)
ULK2 (human) = ULK2 (human) (UniProt Q8IYT8)
STK39 (human) = STK39 (human) (UniProt Q9UEW8)
PLK3 (human) = PLK3 (human) (UniProt Q9H4B4)
TAOK1 (human) = TAOK1 (human) (UniProt Q7L7X3)
MAP4K3 (human) = MAP4K3 (human) (UniProt Q8IVH8)
AURKA (human) = AURKA (human) (UniProt O14965)
AURKA (human), sequence (O14965 whole entry, looked up): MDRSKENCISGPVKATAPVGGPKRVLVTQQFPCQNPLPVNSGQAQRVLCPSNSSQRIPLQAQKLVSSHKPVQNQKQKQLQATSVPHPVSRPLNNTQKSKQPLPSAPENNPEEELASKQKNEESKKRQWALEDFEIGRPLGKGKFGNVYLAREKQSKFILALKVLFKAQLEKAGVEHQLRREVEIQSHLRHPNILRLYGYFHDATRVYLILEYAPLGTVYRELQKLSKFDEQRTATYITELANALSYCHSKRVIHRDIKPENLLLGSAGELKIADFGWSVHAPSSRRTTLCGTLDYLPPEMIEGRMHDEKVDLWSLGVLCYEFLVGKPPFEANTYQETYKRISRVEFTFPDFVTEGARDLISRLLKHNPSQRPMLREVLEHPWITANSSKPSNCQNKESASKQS

PDGFRB (human) = PDGFRB (human) (UniProt P09619)
PDGFRB (human), sequence (P09619 whole entry, looked up): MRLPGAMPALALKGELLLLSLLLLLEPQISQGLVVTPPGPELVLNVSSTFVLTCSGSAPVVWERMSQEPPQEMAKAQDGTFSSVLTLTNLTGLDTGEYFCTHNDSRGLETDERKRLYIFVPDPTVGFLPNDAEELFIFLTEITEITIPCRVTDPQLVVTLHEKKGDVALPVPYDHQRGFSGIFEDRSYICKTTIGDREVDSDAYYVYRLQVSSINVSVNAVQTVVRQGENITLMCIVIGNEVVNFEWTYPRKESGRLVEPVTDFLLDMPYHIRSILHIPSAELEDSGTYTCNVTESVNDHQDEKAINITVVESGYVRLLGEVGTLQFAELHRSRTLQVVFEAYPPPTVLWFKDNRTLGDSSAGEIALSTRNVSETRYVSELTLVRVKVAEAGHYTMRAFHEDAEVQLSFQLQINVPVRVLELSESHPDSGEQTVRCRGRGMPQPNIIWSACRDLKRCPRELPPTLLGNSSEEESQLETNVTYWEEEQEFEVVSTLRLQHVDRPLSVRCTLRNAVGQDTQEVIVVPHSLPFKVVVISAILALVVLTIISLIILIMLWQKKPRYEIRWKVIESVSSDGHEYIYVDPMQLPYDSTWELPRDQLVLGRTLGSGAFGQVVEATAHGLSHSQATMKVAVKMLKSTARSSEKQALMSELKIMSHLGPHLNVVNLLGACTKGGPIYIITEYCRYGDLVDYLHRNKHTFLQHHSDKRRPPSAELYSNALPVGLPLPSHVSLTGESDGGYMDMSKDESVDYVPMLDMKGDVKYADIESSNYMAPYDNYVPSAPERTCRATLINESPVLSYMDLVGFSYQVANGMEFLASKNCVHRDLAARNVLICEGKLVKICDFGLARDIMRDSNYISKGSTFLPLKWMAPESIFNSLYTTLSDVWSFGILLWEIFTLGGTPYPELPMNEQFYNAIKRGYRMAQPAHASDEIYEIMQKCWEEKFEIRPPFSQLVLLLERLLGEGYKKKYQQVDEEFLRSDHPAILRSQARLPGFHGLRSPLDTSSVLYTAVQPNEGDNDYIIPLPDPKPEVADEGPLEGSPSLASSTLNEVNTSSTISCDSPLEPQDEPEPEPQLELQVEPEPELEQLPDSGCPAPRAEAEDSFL

EGFR (human) = EGFR (human) (UniProt P00533)
EPHA5 (human) = EPHA5 (human) (UniProt P54756)
ERBB4 (human) = ERBB4 (human) (UniProt Q15303)
GSK3A (human) = GSK3A (human) (UniProt P49840)
GSK3A (human), sequence (P49840 whole entry, looked up): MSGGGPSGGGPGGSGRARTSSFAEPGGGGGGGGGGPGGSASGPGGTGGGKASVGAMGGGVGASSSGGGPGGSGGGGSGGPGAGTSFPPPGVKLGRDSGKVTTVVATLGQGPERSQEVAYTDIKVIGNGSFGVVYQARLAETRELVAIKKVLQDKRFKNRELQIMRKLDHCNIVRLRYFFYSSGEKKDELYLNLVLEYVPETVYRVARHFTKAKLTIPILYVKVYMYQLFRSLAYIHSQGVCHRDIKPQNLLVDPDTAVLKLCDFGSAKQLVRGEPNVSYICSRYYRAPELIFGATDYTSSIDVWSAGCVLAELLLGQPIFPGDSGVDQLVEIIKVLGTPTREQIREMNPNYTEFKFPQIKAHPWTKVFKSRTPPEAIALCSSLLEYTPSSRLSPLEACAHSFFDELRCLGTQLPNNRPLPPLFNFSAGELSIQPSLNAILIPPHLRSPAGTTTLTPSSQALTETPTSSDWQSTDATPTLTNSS

CSNK1G1 (human) = CSNK1G1 (human) (UniProt Q9HCP0)
PRKACA (human) = PRKACA (human) (UniProt P17612)
MYLK2 (human) = MYLK2 (human) (UniProt Q9H1R3)
HIPK3 (human) = HIPK3 (human) (UniProt Q9H422)
ROS1 (human) = ROS1 (human) (UniProt P08922)
PI4KB (human) = PI4KB (human) (UniProt Q9UBF8)
ROCK2 (human) = ROCK2 (human) (UniProt O75116)
HUNK (human) = HUNK (human) (UniProt P57058)
TGFBR1 (human) = TGFBR1 (human) (UniProt P36897)
CDK19 (human) = CDK19 (human) (UniProt Q9BWU1)

JAK1 JH2 pseudokinase (human), sequence (P23458 whole entry, looked up): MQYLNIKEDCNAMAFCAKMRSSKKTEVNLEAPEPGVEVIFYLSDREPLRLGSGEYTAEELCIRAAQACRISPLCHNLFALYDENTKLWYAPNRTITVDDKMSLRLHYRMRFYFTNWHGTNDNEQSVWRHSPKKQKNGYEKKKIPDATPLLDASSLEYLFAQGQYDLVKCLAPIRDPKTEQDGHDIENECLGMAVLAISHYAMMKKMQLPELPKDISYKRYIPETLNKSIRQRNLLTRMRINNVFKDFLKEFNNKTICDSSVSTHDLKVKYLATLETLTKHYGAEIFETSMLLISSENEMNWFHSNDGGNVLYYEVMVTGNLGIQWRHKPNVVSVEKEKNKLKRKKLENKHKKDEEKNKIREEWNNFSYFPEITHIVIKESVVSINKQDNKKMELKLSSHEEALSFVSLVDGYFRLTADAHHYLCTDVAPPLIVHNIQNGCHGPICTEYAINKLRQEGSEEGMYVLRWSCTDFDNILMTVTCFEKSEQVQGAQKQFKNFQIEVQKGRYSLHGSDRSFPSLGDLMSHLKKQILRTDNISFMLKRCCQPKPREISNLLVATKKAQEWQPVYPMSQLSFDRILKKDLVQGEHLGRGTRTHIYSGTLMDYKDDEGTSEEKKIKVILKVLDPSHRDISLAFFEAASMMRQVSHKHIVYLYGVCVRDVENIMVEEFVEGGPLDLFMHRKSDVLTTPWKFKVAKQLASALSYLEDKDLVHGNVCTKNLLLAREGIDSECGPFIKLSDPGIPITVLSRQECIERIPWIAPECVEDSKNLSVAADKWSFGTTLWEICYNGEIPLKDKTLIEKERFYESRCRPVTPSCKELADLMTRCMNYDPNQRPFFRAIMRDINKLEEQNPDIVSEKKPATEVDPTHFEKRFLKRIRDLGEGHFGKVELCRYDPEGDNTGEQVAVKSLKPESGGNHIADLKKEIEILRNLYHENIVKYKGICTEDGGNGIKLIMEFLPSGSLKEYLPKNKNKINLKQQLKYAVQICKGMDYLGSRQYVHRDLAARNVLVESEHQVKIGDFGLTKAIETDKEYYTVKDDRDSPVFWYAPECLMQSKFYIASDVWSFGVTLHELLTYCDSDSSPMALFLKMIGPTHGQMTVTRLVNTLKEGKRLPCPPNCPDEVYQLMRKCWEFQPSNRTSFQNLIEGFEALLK
ULK1 (human), sequence (O75385 whole entry, looked up): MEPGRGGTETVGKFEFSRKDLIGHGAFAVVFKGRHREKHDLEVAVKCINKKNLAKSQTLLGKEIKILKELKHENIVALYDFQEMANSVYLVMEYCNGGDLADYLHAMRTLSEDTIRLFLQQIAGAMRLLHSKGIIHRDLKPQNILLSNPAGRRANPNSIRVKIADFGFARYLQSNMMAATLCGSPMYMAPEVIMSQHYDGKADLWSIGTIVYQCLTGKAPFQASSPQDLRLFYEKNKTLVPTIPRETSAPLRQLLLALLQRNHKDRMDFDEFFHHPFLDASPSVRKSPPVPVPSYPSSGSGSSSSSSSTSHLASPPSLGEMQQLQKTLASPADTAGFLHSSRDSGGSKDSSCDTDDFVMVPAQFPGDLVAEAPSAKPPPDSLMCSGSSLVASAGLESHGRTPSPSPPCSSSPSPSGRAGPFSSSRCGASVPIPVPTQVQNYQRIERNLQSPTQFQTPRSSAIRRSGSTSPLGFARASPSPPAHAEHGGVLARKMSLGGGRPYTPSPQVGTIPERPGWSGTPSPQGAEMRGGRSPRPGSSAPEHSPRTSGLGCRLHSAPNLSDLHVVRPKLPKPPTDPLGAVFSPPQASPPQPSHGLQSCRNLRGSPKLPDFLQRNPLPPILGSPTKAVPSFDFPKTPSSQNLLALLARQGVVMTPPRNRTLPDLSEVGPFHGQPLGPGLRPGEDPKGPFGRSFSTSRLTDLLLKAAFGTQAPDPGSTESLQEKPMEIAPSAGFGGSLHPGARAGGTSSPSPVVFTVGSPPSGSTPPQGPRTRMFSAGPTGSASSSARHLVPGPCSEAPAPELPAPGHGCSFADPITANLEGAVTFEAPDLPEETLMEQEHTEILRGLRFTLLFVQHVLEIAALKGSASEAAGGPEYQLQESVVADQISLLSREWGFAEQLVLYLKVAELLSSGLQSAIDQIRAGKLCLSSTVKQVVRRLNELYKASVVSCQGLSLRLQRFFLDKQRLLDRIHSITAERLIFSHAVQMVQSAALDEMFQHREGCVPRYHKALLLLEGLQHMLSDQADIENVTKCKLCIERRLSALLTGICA

| kinase still bound, per cent of control (PIP4K2B (human)) [%] | kinase still bound, per cent of control [1] [%] | kinase still bound, per cent of control (MARK3 (human)) [%] | kinase still bound, per cent of control (CDC2L2 (human)) [%] | kinase still bound, per cent of control (RPS6KA2 KD1 (human)) [%] | kinase still bound, per cent of control (FYN (human)) [%] | kinase still bound, per cent of control (BTK (human)) [%] | kinase still bound, per cent of control (MAPK9 (human)) [%] | kinase still bound, per cent of control (LIMK1 (human)) [%] | kinase still bound, per cent of control (RPS6KA1 KD2 (human)) [%] | kinase still bound, per cent of control (NEK1 (human)) [%] | kinase still bound, per cent of control (MLTK (human)) [%] | kinase still bound, per cent of control (PLK3 (human)) [%] | kinase still bound, per cent of control (MAP4K3 (human)) [%] | kinase still bound, per cent of control (AURKA (human)) [%] | kinase still bound, per cent of control (PDGFRB (human)) [%] | kinase still bound, per cent of control (EGFR (human)) [%] | kinase still bound, per cent of control (EPHA5 (human)) [%] | kinase still bound, per cent of control (ERBB4 (human)) [%] | kinase still bound, per cent of control (GSK3A (human)) [%] | Compound | also measured |
| --- | --- | --- | --- | --- | --- | --- | --- | --- | --- | --- | --- | --- | --- | --- | --- | --- | --- | --- | --- | --- | --- |
| 100 | 100 | 100 | 100 | 100 | 100 | 100 | 100 | 100 | 28 | 100 | 100 | 100 | 100 | 100 | 100 | 100 | 100 | 100 | 100 | CCOc1cc(N2CCC(O)CC2)ccc1Nc1ncc2c(n1)N(C)c1ccccc1C(=O)N2C | kinase still bound, per cent of control (MAP3K2 (human)): 100%; kinase still bound, per cent of control (ULK1 (human)): 100%; kinase still bound, per cent of control (NIM1 (human)): 100%; kinase still bound, per cent of control (DYRK1A (human)): 100%; kinase still bound, per cent of control (ULK2 (human)): 100%; kinase still bound, per cent of control (STK39 (human)): 100%; kinase still bound, per cent of control (TAOK1 (human)): 100%; kinase still bound, per cent of control (CSNK1G1 (human)): 100%; kinase still bound, per cent of control (PRKACA (human)): 100%; kinase still bound, per cent of control (MYLK2 (human)): 100%; kinase still bound, per cent of control (HIPK3 (human)): 100%; kinase still bound, per cent of control (ROS1 (human)): 15%; kinase still bound, per cent of control (PI4KB (human)): 100%; kinase still bound, per cent of control (ROCK2 (human)): 100%; kinase still bound, per cent of control (HUNK (human)): 100%; kinase still bound, per cent of control (TGFBR1 (human)): 100%; kinase still bound, per cent of control (CDK19 (human)): 100% |
| 100 | 100 | 100 | 100 | 100 | 100 | 2.6 | 100 | 100 | 100 | 100 | 100 | 100 | 100 | 100 | 100 | 100 | 100 | 100 | 100 | COc1cc(C)c(Sc2cnc(NC(=O)c3ccc(CNC(C)C(C)C)cc3)s2)cc1C(=O)N1CCN(C(C)=O)CC1 (stereo not drawn) | kinase still bound, per cent of control (ULK1 (human)): 25%; kinase still bound, per cent of control (ULK2 (human)): 24%; kinase still bound, per cent of control (TAOK1 (human)): 16%; kinase still bound, per cent of control (CSNK1G1 (human)): 100%; kinase still bound, per cent of control (PRKACA (human)): 100%; kinase still bound, per cent of control (MYLK2 (human)): 100%; kinase still bound, per cent of control (ROS1 (human)): 100%; kinase still bound, per cent of control (ROCK2 (human)): 100%; kinase still bound, per cent of control (TGFBR1 (human)): 100%; kinase still bound, per cent of control (CDK19 (human)): 100% |
| 100 | 100 | 100 | 100 | 100 | 100 | 26 | 100 | 100 | 30 | 100 | 100 | 100 | 100 | 100 | 100 | 0.55 | 100 | 0.55 | 100 | COc1cc(N2CCC(C(N)=O)CC2)ccc1Nc1nc(N)c(Cl)c(Nc2ccccc2S(=O)(=O)C(C)C)n1 | kinase still bound, per cent of control (ULK1 (human)): 100%; kinase still bound, per cent of control (ULK2 (human)): 100%; kinase still bound, per cent of control (TAOK1 (human)): 100%; kinase still bound, per cent of control (CSNK1G1 (human)): 100%; kinase still bound, per cent of control (PRKACA (human)): 100%; kinase still bound, per cent of control (MYLK2 (human)): 100%; kinase still bound, per cent of control (ROS1 (human)): 3.2%; kinase still bound, per cent of control (ROCK2 (human)): 100%; kinase still bound, per cent of control (TGFBR1 (human)): 100%; kinase still bound, per cent of control (CDK19 (human)): 100% |
| 100 | 100 | 100 | 8 | 100 | 1.4 | 1.4 | 19 | 2.8 | 100 | 100 | 2.1 | 100 | 100 | 100 | 0.45 | 3.4 | 0.85 | 9.8 | 100 | COc1ccc(N(C(=O)Oc2cc(C(=O)Nc3cccc(C(F)(F)F)c3)ccc2C)c2ccnc(Nc3ccc(N4CCN(C)CC4)cc3)n2)c(OC)c1 | kinase still bound, per cent of control (CSNK1G1 (human)): 100%; kinase still bound, per cent of control (PRKACA (human)): 33%; kinase still bound, per cent of control (MYLK2 (human)): 100%; kinase still bound, per cent of control (ROS1 (human)): 1.9%; kinase still bound, per cent of control (TGFBR1 (human)): 100%; kinase still bound, per cent of control (CDK19 (human)): 100% |
